Values quoted from earlier work, collected in patent US20140010866A1, “METHODS AND SYSTEMS FOR TREATMENT OF MIGRAINES AND OTHER INDICATIONS” (Strategic Science & Technologies, LLC, priority 2010, published 2014).

In the case of `CN[C@@H]1CCc2[nH]c3ccc(C(N)=O)cc3c2C1` [frovatriptan], the pKa is listed as 17.27.
In the case of `CN(C)CCc1c[nH]c2ccc(CS(=O)(=O)N3CCCC3)cc12` [almotriptan], the pKa is given as 8.77.
In the case of `CC(C)[C@H]1C(=O)N2CCC[C@H]2[C@]2(O)O[C@@](C)(NC(=O)[C@@H]3C=C4c5cccc6[nH]cc(c56)C[C@H]4N(C)C3)C(=O)N12` [ergovaline], the pKa is listed as 11.64.
In the case of `CC(C)C[C@H]1C(=O)N2CCC[C@H]2[C@]2(O)O[C@](NC(=O)[C@@H]3C=C4c5cccc6[nH]c(Br)c(c56)C[C@H]4N(C)C3)(C(C)C)C(=O)N12` [bromocriptine], the pKa is given as 11.13.
In the case of `CN(C)CCc1c[nH]c2ccc(C[C@H]3COC(=O)N3)cc12` [zolmitriptan], the pKa is given as 17.15.
In the case of `CNS(=O)(=O)CCc1ccc2[nH]cc(C3CCN(C)CC3)c2c1` [naratriptan], the pKa is listed as 17.11.
